In ChEMBL document CHEMBL5108080 (J Med Chem, 2022):

Columns and labels:
Influenza A virus [1] = experiment: (§1) Antiviral activity against group 2 influenza A virus H3N2 (A/Hong Kong-11/1968) infected in human A549 cells assessed as inhibition of viral entry preincubated with compound for 30 mins followed by viral infection for 1 hour further incubated for 48 hrs with replacement of fresh medium containing compound; format: functional, organism-based
Influenza A virus [2] = experiment: as §1, with “H3N2 (A/Victoria/361/2011)” for “H3N2 (A/Hong Kong-11/1968)”, “containing compound.” for “containing compound”; format: functional, organism-based

`c1ccc(-c2nc3ncccn3c2NC2CCCCC2)cc1` gave an EC50 (Influenza A virus [1]) of 71 nM and an EC50 (Influenza A virus [2]) of 730 nM.

`COc1ccc(-c2nc3ncccn3c2NC2CCCCC2)cc1` gave an EC50 (Influenza A virus [1]) of 30 nM and an EC50 (Influenza A virus [2]) of 640 nM.

`Oc1ccc(-c2nc3ncccn3c2NC2CCCCC2)cc1` gave an EC50 (Influenza A virus [1]) of 360 nM and an EC50 (Influenza A virus [2]) of 1500 nM.

`Fc1ccc(-c2nc3ncccn3c2NC2CCCCC2)cc1` gave an EC50 (Influenza A virus [1]) of 320 nM and an EC50 (Influenza A virus [2]) of 420 nM.

`Brc1ccc(-c2nc3ncccn3c2NC2CCCCC2)cc1` showed an EC50 (Influenza A virus [1]) of 190 nM and an EC50 (Influenza A virus [2]) of 1500 nM.

In the case of `Cc1cc(Br)ccc1-c1nc2ncccn2c1NC1CCCCC1`, the EC50 (Influenza A virus [1]) is reported as 340 nM.

With `CCOC(=O)C1=C[C@@H](OC(CC)CC)[C@H](NC(C)=O)[C@@H](N)C1` [OSELTAMIVIR] the EC50 (Influenza A virus [1]) was 22 nM and the EC50 (Influenza A virus [2]) was > 10000 nM.
